Patent US11648287B2, “Composition for the treatment of intracellular bacterial infection” (priority 2017, dated 2023)

Key:
[1] = tested on: intracellular S. epidermidis in Raw 264.7 cells; assay: Intracellular antimicrobial activity assay; format: cell-based
Procedure: After culture S. epidermidis bacteria were pelleted, re-suspended in 1.5 ml of PBS mixed with 0.5 ml of human serum (H1 serum, Cat […], Bio Whittaker, The Netherlands) and incubated for 20 minutes for opsonization. The inoculum was adjusted to 1.8×10^8 CFU/ml with RPMI. Medium of cells was replaced by 40 μl of the bacterial inoculum (bacteria to cell ratio of 40:1) and phagocytosis was allowed to proceed for 45 minutes. […] Raw 264.7 cells were detached by incubation in 100 μl of RPMI containing 0.5 mM EDTA. Detached cells were transferred to a vial and lysed with 40 μl of 1% saponine by incubation in a waterbath sonicator for 5 minutes (Transsonic 460, Elma Schmldbaur GmbH, Germany). The sonicate was centrifuged, and the pelleted bacteria were washed repeatedly and re-suspended in PBS before quantitative culture of serial 10-fold dilutions. Intracellular surviving S. epidermidis in Raw 264.7 cells were expressed as numbers of CFU per well. […] After illumination, cells were incubated overnight, lysed before quantitative culture of surviving bacteria.

[2] = tested on: Raw 264.7 cells; assay: Propidium iodide influx, loss of viability of Raw 264.7 cells; format: cell-based, mouse; conditions: TPPS2a 0.25 μg/ml + S. epidermidis (40:1); illuminated for 5 minutes
Procedure: Raw 264.7 cells were seeded in a 96-well plate (polystyrene Nunclon™ clear TC plate, flat bottom, Greiner, The Netherlands) at a concentration of 1×10^5 cells/well and incubated overnight in RPMI at 37° C. in a humidified atmosphere containing 5% CO2 (unless specified otherwise). The cells were subsequently incubated overnight in 200 μl of RPMI containing gentamicin (15.6 to 1000 μg/ml), or incubated for 2 hours in RPMI containing photosensitizer TPPS2a (0.1 to 0.4 μg/ml) (PCI Biotech AS, Norway) which was replaced with refresh RPMI in order to remove unbound TPPS2a before incubation of another 2 hours. Raw 264.7 cells incubated in RPMI all the time were used as controls. […] After illumination, cells were incubated in refresh RPMI for 24 hours. The effect of gentamicin and of TPPS2a on the metabolic activity of Raw 264.7 cells was tested using MTT at 24 hours after incubation or by WST-1 assay directly and at 24 hours after illumination, respectively, according to the manufacturer's instruction (Cell MTT or WST-1 assay kit, Sigma-Aldrich, The Netherlands). […] The influx of propidium iodide was measured to quantify the loss of cell viability directly or at 24 hours after illumination.

[3] = tested on: zebrafish embryos; assay: Toxicity of vancomycin alone or combined with TPCS2a and illumination for non-infected zebrafish embryos; format: in vivo; conditions: vancomycin alone, 0.4 to 6.4 ng per non-infected embryo
Procedure: The toxicity of vancomycin (Vanco) alone or combined with TPCS2a and illumination (T) for non-infected zebrafish embryos was examined. Doses of vancomycin (0.4, 1.6 or 6.4 ng per 1 nl of PBS), or combined with 2.5*10^−3 ng TPCS2a per 1 nl of PBS, were injected per embryo. […] The initial group sizes were 27 to 29 embryos.

[4] = tested on: Staphylococcus aureus; conditions: vancomycin alone 0.4 ng; 4300 CFU/embryo
Procedure: To investigate whether PCI enhanced the antimicrobial efficacy of vancomycin against Staphylococcus aureus infection, S. aureus-infected zebrafish embryos were treated with vancomycin alone (0.4 ng) or combined with TPCS2a (2.5*10^−3 ng). PBS mock treatment was used as control. After injections, zebrafish embryos were maintained group-wise in petri-dishes containing E3 medium. The petri-dishes were placed on the Lumisource illumination device and embryos were illuminated for 10 minutes. Initial group sizes were 29 or 30 embryos. The difference between survival of the vancomycin alone group and the vancomycin-TPCS2a/illumination group was analyzed using Log-rank test, *p≤0.033.

[5] = tested on: S. epidermidis strain O-47; assay: MIC and MBC of gentamicin for S. epidermidis in RPMI; format: cell-based; conditions: S. epidermidis O-47; RPMI medium supplemented with 5% fetal calf serum
Excerpt: An “antibacterial agent” is an entity (e.g. a molecule) which has the ability to kill, damage or prevent the replication of selected bacteria under in vitro conditions, e.g. when in direct contact under culture conditions. The bacteria are preferably as described herein. (As referred to herein bacteria are referred to in both the singular and plural. In particular they are referred to in the singular when defining the type of bacteria to be targeted (i.e. the type, e.g. species, applicable to each bacterium) and in the plural when referring to the treatment to which they may be subjected (i.e. treatment of multiple microorganisms).) In particular, the antibacterial activity is assessed by determining the MIC or MBC value against one or more bacteria, e.g. against a Staphylococcus bacteria. Antibacterial activity may be determined by reference to the MIC value, minimum inhibition concentration (MIC), which is defined as the minimum concentration of an antimicrobial agent that inhibits visible growth of micro-organisms in specified liquid media after overnight incubation. Alternatively antibacterial activity may be determined by the minimum bactericidal concentration (MBC) which is the minimum concentration that kills 99.9% of the bacteria during this incubation period. […]

[6] = tested on: S aureus ATCC 49230; assay: Treatment of S. aureus-infected zebrafish embryos with gentamicin alone or combined with TPCS2a; format: in vivo; conditions: 0.4, 0.1 or 0.05 ng gentamicin, without or with 2.5*10^−3 ng TPCS2a; illumination 10 minutes
Procedure: (§1) Injection into the blood circulation of zebrafish embryos via either the blood island or the duct of Cuvier (Benard et al., 2012, Journal of visualized experiments: JoVE, 61) was performed following the injection procedure described earlier (Zhang et al., 2017, supra). The volume of liquid per injection was adjusted to 1 nl for all injections in the present study.
Wild type zebrafish embryos were intravenously injected with a suitable dose of S aureus ATCC 49230 via the blood island at 30 hpf, and randomly divided into groups for different treatments. At 32 hpf 1 nl of PBS solution containing gentamicin alone (0.05, 0.1 or 0.4 μg/ml) or combined with 0.25 μg/ml TPCS2a (to provide 2.5×10^−3 ng) was intravenously injected. Control embryos received PBS injections. The embryos were protected from light using aluminium foil apart from illumination of 10 minutes, at 34 hpf, and separately maintained in E3 medium, which was refreshed daily. Survival was monitored until 6 dpi.

[7] = tested on: zebrafish embryos; assay: Toxicity test of gentamicin alone or combined with TPCS2a in zebrafish embryos; format: in vivo; conditions: for toxicity to zebrafish embryos (survival): graded doses injected per embryo; for maximal non-toxic concentrations: injection at 32 hpf, illumination 10 minutes, survival until 6 dpi
Procedure: as §1
Toxicity test of gentamicin alone or combined with TPCS2a in zebrafish embryos Gentamicin or TPCS2a solution (both in PBS) or mixtures were injected into WT zebrafish embryos at 32 hours post fertilization (hpf). PBS was injected into control embryos. The embryos were protected from light using aluminium foil apart from illumination for 10 minutes using LumiSource, at 34 hpf. Survival of embryos (heartbeat, movement) was monitored daily until 6 dpi.

[8] = tested on: Raw 264.7 cells; assay: MTT metabolic activity of Raw 264.7 cells (gentamicin cytotoxicity); format: cell-based, mouse; conditions: after incubation of 24 hours
Procedure: Raw 264.7 cells were seeded in a 96-well plate (polystyrene Nunclon™ clear TC plate, flat bottom, Greiner, The Netherlands) at a concentration of 1×10^5 cells/well and incubated overnight in RPMI at 37° C. in a humidified atmosphere containing 5% CO2 (unless specified otherwise). The cells were subsequently incubated overnight in 200 μl of RPMI containing gentamicin (15.6 to 1000 μg/ml), or incubated for 2 hours in RPMI containing photosensitizer TPPS2a (0.1 to 0.4 μg/ml) (PCI Biotech AS, Norway) which was replaced with refresh RPMI in order to remove unbound TPPS2a before incubation of another 2 hours. Raw 264.7 cells incubated in RPMI all the time were used as controls. The cells were protected from light using aluminium foil apart from illumination of 15 minutes using LumiSource (PCI Biotech AS, Norway). After illumination, cells were incubated in refresh RPMI for 24 hours. The effect of gentamicin and of TPPS2a on the metabolic activity of Raw 264.7 cells was tested using MTT at 24 hours after incubation or by WST-1 assay directly and at 24 hours after illumination, respectively, according to the manufacturer's instruction (Cell MTT or WST-1 assay kit, Sigma-Aldrich, The Netherlands). […] The influx of propidium iodide was measured to quantify the loss of cell viability directly or at 24 hours after illumination.

O=S(=O)(O)c1ccc(-c2c3nc(c(-c4ccccc4)c4ccc([nH]4)c(-c4ccccc4)c4nc(c(-c5ccc(S(=O)(=O)O)cc5)c5ccc2[nH]5)C=C4)C=C3)cc1 [TPPS2a, tetraphenyl porphyrin disulphonate]
intracellular survival of S. epidermidis vs non-treated illuminated group ([1]; TPPS2a only 0.25 μg/ml, with illumination): did not affect intracellular survival of S. epidermidis
reduction of cell viability (influx of propidium iodide) [2]: not statistically different from the control group

CN[C@H](CC(C)C)C(=O)N[C@H]1C(=O)N[C@@H](CC(N)=O)C(=O)N[C@H]2C(=O)N[C@H]3C(=O)N[C@H](C(=O)N[C@H](C(=O)O)c4cc(O)cc(O)c4-c4cc3ccc4O)[C@H](O)c3ccc(c(Cl)c3)Oc3cc2cc(c3O[C@@H]2O[C@H](CO)[C@@H](O)[C@H](O)[C@H]2O[C@H]2C[C@](C)(N)[C@H](O)[C@H](C)O2)Oc2ccc(cc2Cl)[C@H]1O [vancomycin]
toxicity to zebrafish embryos [3]: dose-dependent toxicity
survival of S. aureus-infected embryos [4]: had no effect on the survival of the infected embryos

gentamicin
minimal bactericidal concentration [5]: 0.33 µg/mL
minimal inhibitory concentration [5]: 0.04 µg/mL
survival of S. aureus-infected embryos compared to PBS mock treatment [6]: significantly improved the survival
killing of intracellular S. epidermidis ([1]; gentamicin only 1, 10 or 30 μg/ml, regardless of time of illumination): did not kill intracellular S. epidermidis
effect of PCI on the efficacy of gentamicin ([1]; lowest dose of gentamicin, with PCI, in vitro): no effect of PCI
toxicity to zebrafish embryos (survival) [7]: dose-dependent toxicity
maximal non-toxic concentrations [7]: 2 ng/embryo
extracellular concentrations that did not reduce the metabolic activity of Raw 264.7 cells [8]: up to 250 μg/ml

tetraphenyl chlorin disulphonate [TPCS2a]
toxicity to zebrafish embryos (survival) [7]: dose-dependent toxicity
maximal non-toxic concentrations [7]: 2.5*10^−3 ng/embryo
